# Results published in article PMC8037182, “Solvothermal Synthesis of Multiple Dihydropyrimidinones at a Time as Inhibitors of Eg5” (Molecules, 2021).
# Tests used:
# T24 cell line = test: Cytotoxicity MTS assay, T24 cell line; type: cell-based; conditions: for OD490 Mean / OD490 Well 1 / OD490 Well 2 / OD490 Well 3: T24 cell line;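 for OD490 Mean: blank control wells received 0.025% DMSO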;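 for OD490 Well 1: blank control wells received 0.025% DMSO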;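 for OD490 Well 2: blank control wells received 0.025% DMSO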;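 for OD490 Well 3: blank control wells received 0.025% DMSO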
# Method in brief: (§1)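 Steps: plate 1000 cells per well; incubate 24 h; add compound (final 0.5 to 100 µM) or 0.025% DMSO blank for 24 h; add MTS reagent, hold 2 h at 37 °C in 5% CO2; read A490; fit percent viability against concentration by non-linear regression to obtain IC50.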
# L929 cell line = test: Cytotoxicity MTS assay, L929 cell line; type: cell-based; conditions: for OD490 values, Mean / OD490 values, Well 1 / OD490 values, Well 2 / OD490 values, Well 3: L929 cell line
# Method in brief: as §1
smiles,measurement,setting,value
CCOC(=O)c1[nH]c(C2NC(=O)NC(C)=C2C(=O)Nc2ccccc2C)c(C(=O)OC)c1C (centres unmarked) [D4],IC50,"T24 cell line; MTS assay, 24 h exposure",129 µM
same,OD490 Mean,"T24 cell line; 0.5μM, first assay",1.9335
same,OD490 Well 1,"T24 cell line; 0.5μM, first assay",1.4364
same,OD490 Well 2,"T24 cell line; 0.5μM, first assay",2.2473
same,OD490 Well 3,"T24 cell line; 0.5μM, first assay",2.1169
same,OD490 Mean,"T24 cell line; 0.5μM, second assay",1.7407
same,OD490 Well 1,"T24 cell line; 0.5μM, second assay",1.6852
same,OD490 Well 2,"T24 cell line; 0.5μM, second assay",1.7785
same,OD490 Well 3,"T24 cell line; 0.5μM, second assay",1.7585
same,OD490 Mean,"T24 cell line; 0.5μM, third assay",1.7395
same,OD490 Well 1,"T24 cell line; 0.5μM, third assay",1.7423
same,OD490 Well 2,"T24 cell line; 0.5μM, third assay",1.7741
same,OD490 Well 3,"T24 cell line; 0.5μM, third assay",1.7022
same,OD490 Mean,"T24 cell line; 1μM, first assay",2.0004
same,OD490 Well 1,"T24 cell line; 1μM, first assay",1.9146
same,OD490 Well 2,"T24 cell line; 1μM, first assay",1.8237
same,OD490 Well 3,"T24 cell line; 1μM, first assay",2.2630
same,OD490 Mean,"T24 cell line; 1μM, second assay",1.6895
same,OD490 Well 1,"T24 cell line; 1μM, second assay",1.7235
same,OD490 Well 2,"T24 cell line; 1μM, second assay",1.6895
same,OD490 Well 3,"T24 cell line; 1μM, second assay",1.6555
same,OD490 Mean,"T24 cell line; 1μM, third assay",1.7159
same,OD490 Well 1,"T24 cell line; 1μM, third assay",1.7423
same,OD490 Well 2,"T24 cell line; 1μM, third assay",1.7020
same,OD490 Well 3,"T24 cell line; 1μM, third assay",1.7033
same,OD490 Mean,"T24 cell line; 10μM, first assay",1.7700
same,OD490 Well 1,"T24 cell line; 10μM, first assay",1.7289
same,OD490 Well 2,"T24 cell line; 10μM, first assay",1.7432
same,OD490 Well 3,"T24 cell line; 10μM, first assay",1.8379
same,OD490 Mean,"T24 cell line; 10μM, second assay",1.7224
same,OD490 Well 1,"T24 cell line; 10μM, second assay",1.6895
same,OD490 Well 2,"T24 cell line; 10μM, second assay",1.7125
same,OD490 Well 3,"T24 cell line; 10μM, second assay",1.7652
same,OD490 Mean,"T24 cell line; 10μM, third assay",1.7024
same,OD490 Well 1,"T24 cell line; 10μM, third assay",1.6647
same,OD490 Well 2,"T24 cell line; 10μM, third assay",1.7424
same,OD490 Well 3,"T24 cell line; 10μM, third assay",1.7000
same,OD490 Mean,"T24 cell line; 25μM, first assay",1.7511
same,OD490 Well 1,"T24 cell line; 25μM, first assay",1.6328
same,OD490 Well 2,"T24 cell line; 25μM, first assay",1.8078
same,OD490 Well 3,"T24 cell line; 25μM, first assay",1.8128
same,OD490 Mean,"T24 cell line; 25μM, second assay",1.5821
same,OD490 Well 1,"T24 cell line; 25μM, second assay",1.5660
same,OD490 Well 2,"T24 cell line; 25μM, second assay",1.5848
same,OD490 Well 3,"T24 cell line; 25μM, second assay",1.5954
same,OD490 Mean,"T24 cell line; 25μM, third assay",1.5535
same,OD490 Well 1,"T24 cell line; 25μM, third assay",1.5385
same,OD490 Well 2,"T24 cell line; 25μM, third assay",1.5232
same,OD490 Well 3,"T24 cell line; 25μM, third assay",1.5987
same,OD490 Mean,"T24 cell line; 50μM, first assay",1.6313
same,OD490 Well 1,"T24 cell line; 50μM, first assay",1.6866
same,OD490 Well 2,"T24 cell line; 50μM, first assay",1.7561
same,OD490 Well 3,"T24 cell line; 50μM, first assay",1.4513
same,OD490 Mean,"T24 cell line; 50μM, second assay",1.4096
same,OD490 Well 1,"T24 cell line; 50μM, second assay",1.4425
same,OD490 Well 2,"T24 cell line; 50μM, second assay",1.4212
same,OD490 Well 3,"T24 cell line; 50μM, second assay",1.3652
same,OD490 Mean,"T24 cell line; 50μM, third assay",1.4169
same,OD490 Well 1,"T24 cell line; 50μM, third assay",1.4284
same,OD490 Well 2,"T24 cell line; 50μM, third assay",1.4022
same,OD490 Well 3,"T24 cell line; 50μM, third assay",1.4202
same,OD490 Mean,"T24 cell line; 100μM, first assay",1.4469
same,OD490 Well 1,"T24 cell line; 100μM, first assay",1.4538
same,OD490 Well 2,"T24 cell line; 100μM, first assay",1.4557
same,OD490 Well 3,"T24 cell line; 100μM, first assay",1.4313
same,OD490 Mean,"T24 cell line; 100μM, second assay",1.2781
same,OD490 Well 1,"T24 cell line; 100μM, second assay",1.3325
same,OD490 Well 2,"T24 cell line; 100μM, second assay",1.2654
same,OD490 Well 3,"T24 cell line; 100μM, second assay",1.2365
same,OD490 Mean,"T24 cell line; 100μM, third assay",1.2819
same,OD490 Well 1,"T24 cell line; 100μM, third assay",1.2539
same,OD490 Well 2,"T24 cell line; 100μM, third assay",1.3332
same,OD490 Well 3,"T24 cell line; 100μM, third assay",1.2585
same,"OD490 values, Mean","L929 cell line; 0.5μM, first assay",1.2390
same,"OD490 values, Well 1","L929 cell line; 0.5μM, first assay",1.2664
same,"OD490 values, Well 2","L929 cell line; 0.5μM, first assay",1.2769
same,"OD490 values, Well 3","L929 cell line; 0.5μM, first assay",1.1737
same,"OD490 values, Mean","L929 cell line; 0.5μM, second assay",1.6699
same,"OD490 values, Well 1","L929 cell line; 0.5μM, second assay",1.5847
same,"OD490 values, Well 2","L929 cell line; 0.5μM, second assay",1.7925
same,"OD490 values, Well 3","L929 cell line; 0.5μM, second assay",1.6324
same,"OD490 values, Mean","L929 cell line; 0.5μM, third assay",1.6193
same,"OD490 values, Well 1","L929 cell line; 0.5μM, third assay",1.5741
same,"OD490 values, Well 2","L929 cell line; 0.5μM, third assay",1.5987
same,"OD490 values, Well 3","L929 cell line; 0.5μM, third assay",1.6852
same,"OD490 values, Mean","L929 cell line; 1μM, first assay",1.1804
same,"OD490 values, Well 1","L929 cell line; 1μM, first assay",1.2290
same,"OD490 values, Well 2","L929 cell line; 1μM, first assay",1.2817
same,"OD490 values, Well 3","L929 cell line; 1μM, first assay",1.0306
same,"OD490 values, Mean","L929 cell line; 1μM, second assay",1.6792
same,"OD490 values, Well 1","L929 cell line; 1μM, second assay",1.5848
same,"OD490 values, Well 2","L929 cell line; 1μM, second assay",1.6985
same,"OD490 values, Well 3","L929 cell line; 1μM, second assay",1.7542
same,"OD490 values, Mean","L929 cell line; 1μM, third assay",1.5459
same,"OD490 values, Well 1","L929 cell line; 1μM, third assay",1.5698
same,"OD490 values, Well 2","L929 cell line; 1μM, third assay",1.5478
same,"OD490 values, Well 3","L929 cell line; 1μM, third assay",1.5202
same,"OD490 values, Mean","L929 cell line; 10μM, first assay",1.0446
same,"OD490 values, Well 1","L929 cell line; 10μM, first assay",1.1408
same,"OD490 values, Well 2","L929 cell line; 10μM, first assay",0.9532
same,"OD490 values, Well 3","L929 cell line; 10μM, first assay",1.0397
same,"OD490 values, Mean","L929 cell line; 10μM, second assay",1.6098
same,"OD490 values, Well 1","L929 cell line; 10μM, second assay",1.5562
same,"OD490 values, Well 2","L929 cell line; 10μM, second assay",1.5879
same,"OD490 values, Well 3","L929 cell line; 10μM, second assay",1.6852
same,"OD490 values, Mean","L929 cell line; 10μM, third assay",1.5291
same,"OD490 values, Well 1","L929 cell line; 10μM, third assay",1.5364
same,"OD490 values, Well 2","L929 cell line; 10μM, third assay",1.5879
same,"OD490 values, Well 3","L929 cell line; 10μM, third assay",1.4630
same,"OD490 values, Mean","L929 cell line; 25μM, first assay",0.9627
same,"OD490 values, Well 1","L929 cell line; 25μM, first assay",0.8216
same,"OD490 values, Well 2","L929 cell line; 25μM, first assay",0.8395
same,"OD490 values, Well 3","L929 cell line; 25μM, first assay",1.2269
same,"OD490 values, Mean","L929 cell line; 25μM, second assay",1.4236
same,"OD490 values, Well 1","L929 cell line; 25μM, second assay",1.4545
same,"OD490 values, Well 2","L929 cell line; 25μM, second assay",1.4879
same,"OD490 values, Well 3","L929 cell line; 25μM, second assay",1.3285
same,"OD490 values, Mean","L929 cell line; 25μM, third assay",1.2968
same,"OD490 values, Well 1","L929 cell line; 25μM, third assay",1.3325
same,"OD490 values, Well 2","L929 cell line; 25μM, third assay",1.3214
same,"OD490 values, Well 3","L929 cell line; 25μM, third assay",1.2365
same,"OD490 values, Mean","L929 cell line; 50μM, first assay",0.9261
same,"OD490 values, Well 1","L929 cell line; 50μM, first assay",0.8106
same,"OD490 values, Well 2","L929 cell line; 50μM, first assay",0.9635
same,"OD490 values, Well 3","L929 cell line; 50μM, first assay",1.0043
same,"OD490 values, Mean","L929 cell line; 50μM, second assay",1.2976
same,"OD490 values, Well 1","L929 cell line; 50μM, second assay",1.3201
same,"OD490 values, Well 2","L929 cell line; 50μM, second assay",1.2240
same,"OD490 values, Well 3","L929 cell line; 50μM, second assay",1.3487
same,"OD490 values, Mean","L929 cell line; 50μM, third assay",1.2105
same,"OD490 values, Well 1","L929 cell line; 50μM, third assay",1.1145
same,"OD490 values, Well 2","L929 cell line; 50μM, third assay",1.2301
same,"OD490 values, Well 3","L929 cell line; 50μM, third assay",1.2869
same,"OD490 values, Mean","L929 cell line; 100μM, first assay",0.7075
same,"OD490 values, Well 1","L929 cell line; 100μM, first assay",0.8384
same,"OD490 values, Well 2","L929 cell line; 100μM, first assay",0.6461
same,"OD490 values, Well 3","L929 cell line; 100μM, first assay",0.6379
same,"OD490 values, Mean","L929 cell line; 100μM, second assay",0.8731
same,"OD490 values, Well 1","L929 cell line; 100μM, second assay",0.9062
same,"OD490 values, Well 2","L929 cell line; 100μM, second assay",0.8662
same,"OD490 values, Well 3","L929 cell line; 100μM, second assay",0.8469
same,"OD490 values, Mean","L929 cell line; 100μM, third assay",0.8397
same,"OD490 values, Well 1","L929 cell line; 100μM, third assay",0.8652
same,"OD490 values, Well 2","L929 cell line; 100μM, third assay",0.7214
same,"OD490 values, Well 3","L929 cell line; 100μM, third assay",0.9325
same,IC50,"L929 cell line; MTS assay, 24 h exposure, ordinary fibroblast, not cancer cells",94.5 µM
